Measurements reported in patent US20110237670A1, “IMPROVEMENT OF NORMAL COGNITIVE FUNCTION” (priority 2008, published 2011).

Columns and labels:
[1] = tested on: patients with Alzheimer's disease; settings: human, in vivo; cited from earlier work
healthy volunteers = settings: human, in vivo; cited from earlier work
Male NMRI mice [2] = experiment: prepulse inhibition (PPI) of acoustic startle response model (pre-attentive information processing); assay type: in vivo; settings: for increase in capacity to filter information pre-attentively (absolute change in PPI at day 1 compared to matching test): acute administration, day 1, FIG. 1B; for effect on PPI response: day 1 and day 3, prepulse level 9 dB over background noise
Excerpt: One way to elucidate how substances affect our cognitive function is to measure how the brain processes information. Pre-attentive information processing is thought to be important for selective and efficient processing of sensory information and for coherent cognitive operations, and thus for memory and cognitive functions. Pre-attentive information processing can be assessed by using the prepulse inhibition (PPI) of acoustic startle response model. One major advantage of the PPI model is that it is a translational behavior. […] PPI is the reduction in reflex response to an intense stimulus when this stimulus is immediately preceded (30-500 ms) by a weak prestimulus. The presentation of the prestimulus, although not strong enough to elicit a measurable response by itself, evokes a short lasting sensory gating process in the brain, which is manifested by the attenuated response to the successive intense stimulus. PPI is hypothesized to reflect the ability of the central nervous system to filter out distracting and irrelevant stimuli before it reaches the cortex. An increased, i.e. improved, PPI could result in better inhibitory mechanisms that filter or gate intrinsic and extrinsic stimuli prior to higher order processing. […] Furthermore, PPI and other cognitive functions are regulated by the same cortico-striato-pallido-thalamic circuitry and association between these different cognitive domains has been shown.
(§1) Male NMRI mice (Charles River, Germany, 25-35 g) were used in examples 1, 2 and 3. The animals were housed nine per cage in a colony room under constant temperature (20±1° C.) and humidity (50±5%). Animals were allowed to acclimatize for at least one week prior to behavioral testing. The daylight cycle was maintained artificially (lights on from 0600 to 1800 hours) and behavioral experiments were conducted during the light phase. The Ethics Committee for Animal Experiments, Goteborg, Sweden, approved all experimental procedures used in the present study.
Acoustic startle was recorded using a MOPS 3 startle response recording system (Metod och Produkt Svenska AB, Sweden). The animals were placed in small plexi glass cages (10×5.5×6 cm) that were suspended at the top of a piston. A movement of the animal in the cage caused a displacement of the piston, the acceleration of which was registered by a piezo-electric accelerometer. This signal was sampled and digitized by a microcomputer that also controlled the delivery of acoustic stimuli. Startle amplitude was defined as the maximum signal amplitude occurring 8-30 ms after the startle-eliciting stimulus. Four cages were used simultaneously and each cage was housed in a dimly lit and sound attenuated cabinet (52×42×38 cm). The cages were calibrated for equal sensitivity prior to testing and a mouse was always tested in the same cage at subsequent tests. The acoustic stimuli consisted of white noise, which was delivered by two high-frequency loudspeakers built into the ceiling of the cabinet.
Each test session started with an 8-min adaptation period containing only white background noise at 65 dB (A). Startle pulse was set to 105 dB (A) and prepulse intensities to 3, 9 and 12 dB (A) above background noise. Duration of acoustic stimuli was set to 20 ms for both prepulses and startle pulses and interstimulus interval (ISI) was set to 40 ms. Following the adaptation period the animals were subjected to a series of 5 startle pulse-alone trials that were omitted from the analysis since they only served to accommodate the animals to the sudden stimulus onset. The animals were then subjected to a pseudo-randomized combination of 3 prepulse-alone trials for each prepulse intensity, 45 pulse-alone trials and 15 prepulse+pulse trials for each prepulse intensity. Trials were separated by 5-15 s intervals.
All mice were first subjected to a pre-test to ensure that they expressed basal startle reactivity.

Male NMRI mice [3] = experiment: habituation of acoustic startle response (non-associative learning); assay type: in vivo; settings: acute 1000 mg/kg intraperitoneally, block 6, versus saline, p<0.05, FIG. 2
Description: as §1
The model used to measure non-associative learning was habituation of acoustic startle response. Habituation refers to the decrease in response to repeated presentation of identical stimuli and the model used for this test is also translational in nature. Since habituation is a measure of how the brain filter outs irrelevant stimuli and focus selectively on important stimuli, it is thought to be a prerequisite for other forms of learning and cognitive functions.
Acoustic startle was recorded using a MOPS 3 startle response recording system (see example 1). […]
The first startle pulse response was omitted from statistical analysis since it was too variable to achieve significance. […] Habituation, the change in mean response amplitude over time, was calculated using the formula: […]

Male NMRI mice [4] = experiment: novel object recognition test (learning and memory formation); assay type: in vivo
Description: as §1
There are several learning and memory tasks that are appropriate for study in rodents. One widely used is the novel object recognition test. The test involves exposing the rodent to two identical objects for a brief period of time (the introductory session). […] Furthermore, very similar aspects of memory formation (involving encoding, con solidation and retrieval of information) can be assessed in human using the Brief Visual Memory Task-Revised (BVMT-R). […]
The object exploration time was manually scored from the videotapes. […]
Data are expressed as means and standard errors of the mean (S.E.M.). […]
A discrimination index was calculated for each animal: Tn/(Tf+Tn)*100 […]

mice = settings: pre-attentive information filtering; cited from earlier work
[5] = tested on: patients with schizophrenia; settings: adjunctive treatment, 6 g/day; cited from earlier work
[6] = in vivo, cited from earlier work
humans = settings: cited from earlier work

CC12CC3CC(C)(C1)CC(N)(C3)C2 [Memantine]
effect on cognition in patients with Alzheimer's disease [1]: enhance cognition | effect on cognition in healthy volunteers (healthy volunteers): no or detrimental effects on cognition

NCCCC[C@H](N)C(=O)O [L-lysine]
pulse-alone response (acoustic startle; sedative properties) (Male NMRI mice [2]; 500-2000 mg/kg): did not affect the pulse-alone response | increase in capacity to filter information pre-attentively (absolute change in PPI at day 1 compared to matching test) (Male NMRI mice [2]; L-lysine 500 mg/kg intraperitoneally): 28.7% | increase in capacity to filter information pre-attentively (absolute change in PPI at day 1 compared to matching test) (Male NMRI mice [2]; L-lysine 1000 mg/kg intraperitoneally): 51.3% | increase in capacity to filter information pre-attentively (absolute change in PPI at day 1 compared to matching test) (Male NMRI mice [2]; L-lysine 2000 mg/kg intraperitoneally): 9.0% | final PPI test at day 9 (Male NMRI mice [2]; after a 6-day washout period): did not demonstrate any significant effects | effect on PPI response (Male NMRI mice [2]; doses 500 mg/kg and 1000 mg/kg): improved the PPI response in a dose related manner | effect on PPI response (Male NMRI mice [2]; highest dose 2000 mg/kg): did not affect PPI significantly | effect of test day on PPI (day 1 versus day 3, repeated administration) (Male NMRI mice [2]; once daily for three days, 500-2000 mg/kg): no significant effect of test day | habituation of the acoustic startle response (Male NMRI mice [3]): improves the brain capacity to filter out irrelevant information | time exploring the two similar objects during the introductory session versus saline (Male NMRI mice [4]; 1000 mg/kg intraperitoneally 30 min before the introductory session): no difference | exploration of the familiar object, recognition session compared with introductory session (Male NMRI mice [4]; 1000 mg/kg intraperitoneally, 90 min delay, p<0.05, FIG. 3B): significantly less exploration of the familiar object | effect on cognitive impairments induced by phencyclidine (mice): can restore cognitive impairments | effect on symptoms in patients with schizophrenia [5]: possibly can improve some symptoms | oral bioavailability ([6]; po): very good oral bioavailability | blood-brain barrier penetration [6]: easily penetrates the blood-brain barrier | reported adverse effects in humans (humans; L-lysine treatment in general): transient gastrointestinal problems in a few patients | adverse effects in long-term studies (humans; administration up to 2 years): have not revealed any adverse effects | reported adverse effects in short-term human studies (humans; doses as high as 40 g/day, resolved as the dose was decreased): abdominal cramps and transient diarrhea

COc1cc2c(cc1OC)C(=O)C(CC1CCN(Cc3ccccc3)CC1)C2 (stereo not shown) [Donezepil]
effect on cognition in patients with Alzheimer's disease [1]: enhance cognition | effect on cognition in healthy volunteers (healthy volunteers): no or detrimental effects on cognition
